The record followed here is patent publication US10875871B2, “Photosensitizer” (Tampereen Korkeakoulusäätiö sr, priority 2016, dated 2020).

For series [1], the system named is E. coli. Briefly: Antimicrobial inactivation under consumer LED lamp. It counts as cell-based, Escherichia coli. The settings on record: dyed filter paper, 1 h illumination from LED lamp. The method, then: (§1) The antimicrobial efficiency of the dye was confirmed by CFU method using microbes E. coli MG1655 (E. coli Genetic Resources at Yale) and A. baylyi ADP1 (ATCC 33305). […] The microplate was illuminated in the solar simulator for 1 hour. UV-IR radiations were cut off using a combination of KG3 band pass filter (315-750 nm transmittance) and ? c-17 yellow filter (transmittance >485 nm). Similarly, light control samples were prepared by depositing microbial medium over dyed and un-dyed samples by covering microplate with aluminum foil for 1 h at room temperature. After 1 h of illumination or incubation, the microbes were extracted with LB medium (10 g/l tryptone, 5 g/l yeast extract, 5 g/l NaCl) (975 μl) and serial dilutions were made from each extract. The dilutions were then plated on LA agar plates and incubated at 30° C. overnight. The number of colonies grown on the agar plate was counted and CFUs per milliliter were calculated from it.
(§2) The spectrum of light emitted from the lamp prior to the experiments was measured. […] In addition, the power density of the lamp was also measured at different distances. […] The absorptance of phthalocyanine Pc4 and porphyrin ZnPf papers were calculated from reflectance and transmittance measurement of dyed papers using integrating sphere (IS) detector. The absorptance profiles were very similar to the absorbance measurement in solution. […]

Series [2] has as its system A. baylyi. Description: Antimicrobial inactivation under consumer LED lamp. It counts as cell-based, Acinetobacter baylyi. Particulars: dyed filter paper, 1 h illumination from LED lamp. The method, then: as §1, with “The microplate was illuminated in the solar simulator for 1 hour.” left out
as §2

A short description of series [3]: Leeching test of dyed paper in PBS buffer. It counts as physicochemical. On the procedure: Stability of the dye Pc4 against was tested with PBS buffer pH 7.2. The absorbance and emission of PBS buffer incubated with dye papers were measured for checking the leeching (FIGS. 9a and b). […] Absorbance and emission of PBS buffer from each vial was measured after 1 h to check the leeching of dyes from papers.

As to `C[n+]1ccc(-c2c3nc(c(-c4cc[n+](C)cc4)c4ccc([nH]4)c(-c4cc[n+](C)cc4)c4nc(c(-c5cc[n+](C)cc5)c5ccc2[nH]5)C=C4)C=C3)cc1.I.I.I.I.[Zn+2]` [ZnPf, Zn(II)tetrakis[methylpyridinium iodide]porphyrin, reference compound], the inactivation of microorganisms entry in series [1] and in series [2] was “complete inactivation” throughout. Further, the “absorbance of PBS extract of dyed paper (leeching)” value in series [3] (28 mg dyed paper in 4 ml PBS pH 7.2, 1 hour, room temperature) is listed as “strong absorption peak at 422 nm”. The “emission of PBS extract of dyed paper (leeching)” value in series [3] (PBS pH 7.2, excited at 422 nm, after 1 hour of incubation) is listed as “intense emission peak”.
